Experimental data from the NIST ThermoML archive (doi:10.1021/je200806n).

Columns and labels:
[1] = 101.3 kPa, Liquid
[2] = xn = mol fraction of the nth substance listed; details: 101.3 kPa, Liquid

CCC(C)O (stereo unspecified) [butan-2-ol]
[1]
Details	mass density [kg/m3]	viscosity [mPa·s]
298.15 K	803.01	3.104
303.15 K	798.29	2.597
308.15 K	793.57	2.152
313.15 K	789.15	1.733

O=C1CCCCC1 [cyclohexanone]
[1]
Details	mass density [kg/m3]	viscosity [mPa·s]
298.15 K	941.91	2.057
303.15 K	937.24	1.847
308.15 K	932.67	1.694
313.15 K	927.72	1.546

CCCCC(C)O (stereo unspecified) [2-hexanol]
[1]
Details	mass density [kg/m3]	viscosity [mPa·s]
298.15 K	810.14	4.101
303.15 K	806.13	3.411
308.15 K	802.06	2.819
313.15 K	797.96	2.219

O=C1CCCCC1 [cyclohexanone] + CCC(C)O
[2]
Details	mass density, 298.15 K [kg/m3]	mass density, 303.15 K [kg/m3]	mass density, 308.15 K [kg/m3]	mass density, 313.15 K [kg/m3]	viscosity, 298.15 K [mPa·s]	viscosity, 303.15 K [mPa·s]	viscosity, 308.15 K [mPa·s]	viscosity, 313.15 K [mPa·s]
x1 = 0.0814	814.99	811.03	805.17	800.53	2.511	2.163	1.828	1.441
x1 = 0.1598	826.39	822.21	816.34	811.48	2.067	1.82	1.561	1.186
x1 = 0.2444	838.54	834.13	828.18	823.15	1.737	1.535	1.33	0.982
x1 = 0.3514	853.71	849.09	843.19	838.01	1.472	1.305	1.128	0.841
x1 = 0.4404	866.19	861.39	855.62	850.33	1.361	1.206	1.039	0.794
x1 = 0.5596	882.62	877.71	872.19	866.91	1.332	1.183	1.036	0.825
x1 = 0.6523	895.31	890.36	884.99	879.69	1.4	1.249	1.108	0.914
x1 = 0.738	906.94	901.93	896.81	891.52	1.501	1.354	1.224	1.051
x1 = 0.8494	921.86	916.99	912.09	907.01	1.704	1.558	1.41	1.248
x1 = 0.9361	933.34	928.57	924.04	918.99	1.889	1.716	1.572	1.43
x1 = 1	941.91	937.24	932.67	927.72	2.057	1.847	1.694	1.546

CCCCCC(C)O (stereo unspecified) [2-heptanol]
[1]
Details	mass density [kg/m3]	viscosity [mPa·s]
298.15 K	813.18	5.023
303.15 K	809.26	4.151
308.15 K	805.01	3.478
313.15 K	801.14	2.852

CCCC(C)O (stereo unspecified) [pentan-2-ol]
[1]
Details	mass density [kg/m3]	viscosity [mPa·s]
298.15 K	805.41	3.499
303.15 K	801.21	2.801
308.15 K	796.64	2.334
313.15 K	792.51	1.993

CC(C)O [propan-2-ol]
[1]
Details	mass density [kg/m3]	viscosity [mPa·s]
298.15 K	781.09	2.055
303.15 K	776.57	1.788
308.15 K	771.87	1.563
313.15 K	767.36	1.378
